Measured values taken from article PMC11651168, “Effective, but Safe? Physiologically Based Pharmacokinetic (PBPK)-Modeling-Based Dosing Study of Molnupiravir for Risk Assessment in Pediatric Subpopulations” (ACS Pharmacology & Translational Science, 2024).
Like-named read-outs stand apart in the source and are kept apart here. Marks after values point to notes of the source that are not given here.

How the values were obtained:
dogs [1] = assay: Preclinical toxicity study in dogs; settings: allometric scaling of 50 mg/kg/day in dogs, scaling factors of ref 38
rats [2] = assay: Preclinical bone and cartilage toxicity in rats; settings: allometric scaling of 500 mg/kg/day in rats, scaling factors of ref 38
[3] = Pediatric PBPK model for neonates, infants and children in early childhood (PK-Sim); parameters: species or system human
[4] = Microsomal metabolic stability assay; type: in vitro ADME; settings: microsomes; for microsomal CLint: microsomal metabolic stability (Clint; in vitro)
Procedure: (§1) First, for the construction of the adult molnupiravir-NHC PBPK model, the physicochemical properties were incorporated. Moreover, ADME in vitro assays were performed to allow a better estimation of in vivo PK behavior. In particular, the plasma stability and the metabolic stability assays were used to derive information on the half-life of molnupiravir and the subsequent generation of NHC. […] This information was taken into account during parameter optimization. […] The determination of the log P value yielded information for calculation of the partition coefficients. […] This value was used as a basis for the subsequent parameter optimization. As NHC is further converted to NHC-TP, which is cleared via the endogenous nucleoside pool, renal clearance as well as hepatic clearance, indicated by our in vitro data, is not involved in clearance.
(§2) The plasma protein binding assay, the plasma stability assay, and the metabolic stability assay were performed as described previously.[30] For all of the assays, NHC and molnupiravir were used. Molnupiravir and NHC were purchased from Merck/Sigma.

[5] = Plasma protein binding assay; type: in vitro ADME; settings: 2 h incubation; for fraction unbound at 2 h: plasma
Procedure: as §1, §2

PAMPA permeability assay = type: in vitro ADME
Procedure: For the PAMPA assay, a PAMP-096 kit from BioAssay Systems was used. Theophyllin, chloramphenicol, and diclofenac were used as low, high, and medium permeability controls, respectively. The assay was conducted as described in the manufacturer’s protocol. For all compounds, 10 mg/mL DMSO stocks were used. Compound concentrations were determined using HPLC-MS/MS. For the HPLC-MS measurements, samples were analyzed using an Agilent 1290 Infinity II HPLC system coupled to an AB Sciex QTrap 6500plus as described below. Permeability was determined as follows in eqs 2 and 3.
Effective permeability (Peff) was calculated using the following formula [drawing 2] 2 [drawing 3] 3 where the PAt is average peak area of the test compound or permeability standard and PAE is the peak area of the equilibrium standard. The value of C was calculated by the following formula, where donor volume (VD) is 0.2 cm^3, acceptor volume (VA) is 0.3 cm^3, membrane area is 0.24 cm^2, and incubation time is 72,360 s.
(§3) Samples were analyzed using an Agilent 1290 Infinity II HPLC system coupled to an AB Sciex QTrap 6500plus mass spectrometer. LC conditions were as follows: column: Agilent Zorbax Eclipse Plus C18, 50 × 2.1 mm, 1.8 μm; temperature: 30 °C; injection volume: 1 μL per sample; flow rate: 700 μL/min. Samples were collected under the following conditions. Solvents: A: 100% water +0.1% HCOOH; solvent B: 100% ACN +0.1% HCOOH. The gradient was as follows: 99% A at 0 min, 99% A until 1 min, 99–0% A from 1 to 3 min, 99% A until 3.2 min. Mass transitions are depicted in Table S1. Peaks of samples were quantified by using relative quantification. Data analysis was performed by using Multiquant 3.0 software (AB Sciex).

[6] = cited from earlier work
rats [7] = tested on: rats; parameters: method as in earlier work; settings: over three months; cited from earlier work
Plasma stability assay = type: in vitro ADME; settings: for half-life: plasma
Procedure: as §1, §2

dogs [8] = settings: 14 days; cited from earlier work
[9] = cited from earlier work; remark: listed apart in the source
[10] = cited from earlier work; remark: listed apart in the source
SARS-CoV-2 delta = tested on: SARS-CoV-2 delta; parameters: method as in Wen et al., 2023 (36); settings: ref Wen et al., 2023 (36), read-out: Antiviral activity, EC50; cited from earlier work
[11] = tested on: SARS-CoV-2 omicron BA.2 lineage; parameters: method as in Wen et al., 2023 (36); settings: ref Wen et al., 2023 (36), read-out: Antiviral activity, EC50; cited from earlier work
[12] = Experimental determination of log P (octan-1-ol/water); type: physicochemical; settings: data from in vitro studies
Procedure: The log P experiment was performed for molnupiravir and its metabolite NHC. Octan-1-ol and water were saturated 24 h prior to the start of the experiment. Each compound was added to the octan-1-ol phase at a final concentration of 100 ng/mL. Two setups were used: octan-1-ol/water (1:1) and octan-1-ol/water (1:10). After addition of the compound, each phase was shaken at 2000 rpm for 1 h, and then, phases were separated by centrifugation at 13,000 rpm for 5 min at 4 °C. From each sample, 10 μL of water layer and octanol layer was diluted to 100 μL with DMSO for high-performance liquid chromatography tandem mass spectrometry (HPLC-MS/MS) analysis. The log P was calculated by Formula 1. [drawing 1] 1
as §3, with “Data analysis was performed by using Multiquant 3.0 software (AB Sciex).” left out

SARS-CoV-2 alpha = tested on: SARS-CoV-2 alpha; parameters: method as in Wen et al., 2023 (36); settings: ref Wen et al., 2023 (36), read-out: Antiviral activity, EC50; cited from earlier work
[13] = tested on: SARS-CoV-2 omicron BA.1 lineage; parameters: method as in Wen et al., 2023 (36); settings: ref Wen et al., 2023 (36), read-out: Antiviral activity, EC50; cited from earlier work
SARS-CoV-2 beta = tested on: SARS-CoV-2 beta; parameters: method as in Wen et al., 2023 (36); settings: ref Wen et al., 2023 (36), read-out: Antiviral activity, EC50; cited from earlier work
SARS-CoV-2 wildtype = tested on: SARS-CoV-2 wildtype; parameters: method as in Wen et al., 2023 (36); settings: ref Wen et al., 2023 (36), read-out: Antiviral activity, EC50; cited from earlier work

With `CC(C)C(=O)OC[C@H]1O[C@@H](n2ccc(NO)nc2=O)[C@H](O)[C@@H]1O` [Molnupiravir] the “human equivalent dose of the nonobserved toxicity dose in dogs” value (dogs [1]) was 27 mg/kg/day, the “human equivalent dose of the toxicity-associated rat dose” value (rats [2]) was “around 80 mg/kg/day” and the “fold higher doses needed in pediatric subpopulations for similar efficacy to adults” value [3] was 2–3 fold. The “microsomal metabolic stability (Clint; in vitro)” value [4] was 40.6 ^b μL/min/mg protein, the microsomal CLint [4] was ~40 µL/min/mg and the “plasma protein binding (%)” value [5] was 38.08 ^b %. The fraction unbound at 2 h [5] was ~0.62, the “permeability (in words)” value (PAMPA permeability assay) was “moderate permeability” and the “permeability (PAMPA)” value (PAMPA permeability assay; 72360 s) was 3.1 10^–6 cm/s. The Papp at 72360 s (PAMPA permeability assay; data from in vitro studies, read-out: specific intestinal permeability (converted)) was 3.1 ×10⁻⁶ cm/s, the solubility [6] was 41[21] mg/mL and the “dose at which bone and cartilage toxicity was observed” value (rats [7]) was “exceeding 500 mg/kg/day”. The “plasma stability (in words)” value (Plasma stability assay) was “degraded rapidly in plasma”, the half-life (Plasma stability assay) was < 0.25 h and the “dose at which no toxicity was observed” value (dogs [8]) was 50 mg/kg/day. The “decrease in Cmax with food (ratio)” value ([9]; concomitant food consumption) was 1.6, the “effect of food on total exposure (AUC0–∞)” value ([9]; concomitant food consumption) was “not impacted” and the Tmax ([9]; with concomitant food consumption) was 3.0 h. The Tmax ([9]; without food) was 1.0 h, the pKa ([10]; first of three values) was 2.2 and the pKa ([10]; second of three printed values) was 10.2. For the same compound, the pKa ([10]; third of three printed values) was 12.0.

For `O=c1nc(NO)ccn1[C@@H]1O[C@H](CO)[C@@H](O)[C@H]1O` [NHC, β-D-N4-hydroxycytidine], the EC50 (SARS-CoV-2 delta) is given as 890 nM, the microsomal CLint [4] is given as ~11.6 µL/min/mg and the “plasma protein binding (%)” value [5] is given as 38.84 ^b %. For the same compound, the fraction unbound at 2 h [5] was ~0.64, the solubility [6] was 21[21] mg/mL and the EC50 [11] was 670 nM. The logP [12] was 0.1, the EC50 (SARS-CoV-2 alpha) was 530 nM and the EC50 [13] was 280 nM. The EC50 (SARS-CoV-2 beta) was 480 nM, the “plasma stability (in words)” value (Plasma stability assay) was “stable in plasma” and the half-life (Plasma stability assay) was > 4 h. For the same compound, the EC50 (SARS-CoV-2 wildtype) was 300 nM and the pKa ([10]; model input, source not given) was 12.30.
